Measured values published in patent publication US20240324679A1, “METHODS AND DEVICES FOR CONTROLLING THE TEMPERATURE OF A DRUG FOIL SUBSTRATE TO GENERATE AN AEROSOL” (ALEXZA PHARMACEUTICALS, INC., priority 2021, published 2024).
Where a name gives a salt, the structure may show the parent alone.

Columns and labels:
[1] = Vaporization of apomorphine HCl film from drug foil substrate, Heat Source 1 (testing electric heating, Device 1); type: physicochemical; details: 0.44 mg/cm^2 coating, airflow ~30 L/min
Experimental: Device 1 has an air inlet and air outlet and a 1 F capacitor (Phoenix Gold Titanium series) to be discharged to resistively heat the substrate (<0.2 sec) and facilitate rapid aerosol formation with a cross-foil airflow of ˜ 30 L/min. Calibration for temperature versus applied voltage was determined with a thermocouple spot-welded to the foil surface.
A 12.7×63.5, 0.127 mm 304-stainless steel drug foil substrate attached to Device 1 with connexions to receive electrical power from an electrical source. Devices were actuated with a constant airflow of ˜ 30 L/min. An example is depicted in FIG. 1D.
(§1) […] was coated on 2.27 cm^2 (0.44 mg/cm^2) on the drug foil substrate of Heat Source 1 or 2 and heated to the temperatures specified in the table below.

[2] = Vaporization of apomorphine HCl film from drug foil substrate, Heat Source 2 (chemical heat package, Device 2); type: physicochemical; details: 0.44 mg/cm^2 coating, airflow ~30 L/min
Description: A 100 mm long device such as that in FIG. 1B, the same shape as that of the Adasuve® device, moulded from PermaStat® resin (antistatic material).
A 47.2×47.2×0.38 mm 304-stainless steel drug foil substrate is attached to a chemical heat package connected to Device 2.
In chemical heat package devices, an exothermic thermite reaction from the reactants inside of the heat package rapidly propagated (˜ 0.1 s) and generated heat nearly instantaneously, which vaporized the drug film. The reactants are calibrated to heat the drug foil substrate to a given temperature. Upper and lower housings were welded prior to vaporization. Devices were actuated with a constant airflow of ˜ 30 L/min.
as §1

[3] = Heat Source 1, substrate temp. 260 °C
[4] = Heat Source 1, substrate temp. 290 °C
[5] = Heat Source 1, substrate temp. 310 °C
[6] = Heat Source 1, substrate temp. 320 °C
[7] = Heat Source 2, substrate temp. 310 °C
[8] = Heat Source 2, substrate temp. 330 °C

- % Vaporization [1, 3]: 40.57 ± 9.34%
- Aerosol Purity (%) [1, 3]: 98.35 ± 0.64%
- % Vaporization [1, 4]: 58.03 ± 12.15%
- Aerosol Purity (%) [1, 4]: 96.45 ± 0.93%
- % Vaporization [1, 5]: 59.69 ± 0.34%
- Aerosol Purity (%) [1, 5]: 94.92 ± 1.12%
- % Vaporization [1, 6]: 66.14 ± 0.95%
- Aerosol Purity (%) [1, 6]: 90.89 ± 0.78%
- % Vaporization [2, 7]: 48.32 ± 16.77%
- Aerosol Purity (%) [2, 7]: 91.71 ± 1.62%
- % Vaporization [2, 8]: 61.58 ± 2.07%
- Aerosol Purity (%) [2, 8]: 87.51 ± 0.18%
- % Vaporization ([2]; Heat Source 2, substrate temp. 400 °C): 49.07 ± 1.12%
Structure (SMILES): CN1CCc2cccc3c2[C@H]1Cc1ccc(O)c(O)c1-3 [apomorphine HCl]
